The conditions of test [1]: sodium hydroxide formulation, hydrolysed E-ring; cited from earlier work.
The subject of test [2] is Wild type human ovarian cancer cells (A2780/WT). The test can be described thus: SRB cytotoxicity assay, inhibition of cell growth, A2780/WT. In kind it is cell-based. The following applies: 2 hour treatment, SRB assay at 5 days. The protocol: (§1) Wild type human ovarian cancer cells (A2780/WT) and doxorubicin resistant human ovarian cancer cells (A2780/DX5) were cultured in RPMI 1640 medium supplemented with 10% fetal bovine serum and 2 mM glutamine, and grown in a 37° C. incubator with 5% CO2. BNP1350 synthesized from camptothecin natural product (purchased from APAC) and BNP1350 synthesized via the Total Synthesis Scheme at BioNumerik Pharmaceuticals, Inc. were dissolved in DMSO for use in cytotoxicity experiments where inhibition of cell growth was measured using the SRB assay. Briefly, cells were seeded (450 cells/well in 100 μL volume) in a 96-well microtiter plates and allowed to attach for 24 hours prior to treatment with either natural product BNP1350 or total synthesis BNP1350 for 2 hours. Following this 2 hour treatment, BNP1350 was removed, the cells were washed with drug-free media (200 μL), and then drug-free media (200 μL) was added to the cells which were allowed to continue growing at 37° C. with 5% CO2 before the SRB assay was performed (total experimental time from the time of initial seeding was 5 days, during which 5 cell doublings occurred).
Background: The SRB assay estimates cell density from bound dye.

Test [3] relates to panel of over twenty (20) human cancer cell lines. Kind of test: In vitro studies on a panel of human cancer cell lines. The format is cell-based. The text has this: In contrast, Karenitecin is a highly lipophilic camptothecin derivative characterized by substantial lactone stability and long plasma half-life. […] The free drug concentration in blood plasma is generally considered to be the pharmacologically active form in clinical pharmacology.

Test [4] relates to doxorubicin resistant human ovarian cancer cells (A2780/DX5). The test can be described thus: SRB cytotoxicity assay, inhibition of cell growth, A2780/DX5. The format is cell-based. The conditions noted are these: for IC50: A2780/DX5, 2 hour treatment, SRB assay at 5 days; for Resistance Factor Ratio A2780/DX5 IC50/A2780WT IC50: ratio of average IC50 values. On the procedure:
as §1

Test [5] deals with angiogenesis (neovascularization). The following applies: mice cornea model; dose levels of 210 mg/kg; cited from earlier work.

Like-named read-outs stand apart in the source and are kept apart here.

For the molecule `CC[C@@](O)(C(=O)O)c1cc2n(c(=O)c1CO)Cc1cc3ccccc3nc1-2` [carboxylate form of CPT], in test [1], the “anti-tumor potency relative to non-hydrolyzed lactone form of CPT” value is “one-tenth or less”.

As to `CC[C@@]1(O)C(=O)OCc2c1cc1n(c2=O)Cc2c-1nc1ccccc1c2CC[Si](C)(C)C` [Total Synthesis BNP1350, (4S)-4-ethyl-4-hydroxy-11-[2-(trimethylsilyl)ethyl]-1H-pyrano[3′:4′:6,7]indolizino[1,2-b]quinoline-3,14(4H,12H)-dione], the IC50 in test [2] (Test 1, listed as Natural Product BNP1350, read-out: IC50 (nM) A2780/WT, Test 1) came to 6.7 nM; in test [2] (Test 1, read-out: IC50 (nM) A2780/WT, Test 1) it was 6 nM; in test [2] (Test 2, listed as Natural Product BNP1350, read-out: IC50 (nM) A2780/WT, Test 2), 5.4 nM; in test [2] (Test 2, read-out: IC50 (nM) A2780/WT, Test 2), 6.8 nM; in test [2] (average of Test 1 and Test 2, listed as Natural Product BNP1350, read-out: IC50 (nM) A2780/WT, Average) it was 6.1 nM; in test [2] (average of Test 1 and Test 2, read-out: IC50 (nM) A2780/WT, Average), 6.4 nM. Also, the IC50 in test [4] (Test 1, listed as Natural Product BNP1350, read-out: IC50 (nM) A2780/DX5, Test 1) turned out to be 8.9 nM; in test [4] (Test 1, read-out: IC50 (nM) A2780/DX5, Test 1), 11.9 nM; in test [4] (Test 2, listed as Natural Product BNP1350, read-out: IC50 (nM) A2780/DX5, Test 2), 11.6 nM; in test [4] (Test 2, read-out: IC50 (nM) A2780/DX5, Test 2), 11.7 nM; in test [4] (average of Test 1 and Test 2, listed as Natural Product BNP1350, read-out: IC50 (nM) A2780/DX5, Average) it was 10.3 nM; in test [4] (average of Test 1 and Test 2, read-out: IC50 (nM) A2780/DX5, Average) it was 11.8 nM. Moreover, in test [3], the “antitumor potency compared with Topotecan or SN-38” value is recorded as “significantly more potent”. In addition, the “Resistance Factor Ratio A2780/DX5 IC50/A2780WT IC50” value in test [4] is 1.8; in test [4] (listed as Natural Product BNP1350), 1.7.

Take `CCc1c2c(nc3ccc(OC(=O)N4CCC(N5CCCCC5)CC4)cc13)-c1cc3c(c(=O)n1C2)COC(=O)[C@]3(O)CC` [Irinotecan, 7-ethyl-10-[4-(1-piperidino)-1-piperidino]carbonyloxy camptothecin]: the neovascularization result in test [5] is listed as “significant reduction”.

These data come from US20140135499A1, “METHODS FOR THE TOTAL CHEMICAL […] OF ENANTIOMERICALLY-PURE 7-(2'-[…]) ETHYL CAMPTOTHECIN” (BioNumerik Pharmaceuticals, Inc., priority 2012, published 2014).
